Among the data in patent US20240376084A1, “INHIBITORS OF ALPHA-HEMOLYSIN OF STAPHYLOCOCCUS AUREUS” (Helmholtz-Zentrum Fur Infektionsforschung GmbH, priority 2021, published 2024) are IC50 and EC50 values, retold here.

Experiment [1] has as its target hemolysin alpha from Staphylococcus aureus (Staphylococcus aureus, UniProt P09616). The experiment can be described thus: cell-based.
Experiment [2] addresses S. aureus Alpha hemolysin (Staphylococcus aureus, UniProt P09616). The experiment is described as follows: cell-based. As to conditions: A549-LDH Assay activity.

hemolysin alpha from Staphylococcus aureus, sequence (P09616 27-319 limits assumed): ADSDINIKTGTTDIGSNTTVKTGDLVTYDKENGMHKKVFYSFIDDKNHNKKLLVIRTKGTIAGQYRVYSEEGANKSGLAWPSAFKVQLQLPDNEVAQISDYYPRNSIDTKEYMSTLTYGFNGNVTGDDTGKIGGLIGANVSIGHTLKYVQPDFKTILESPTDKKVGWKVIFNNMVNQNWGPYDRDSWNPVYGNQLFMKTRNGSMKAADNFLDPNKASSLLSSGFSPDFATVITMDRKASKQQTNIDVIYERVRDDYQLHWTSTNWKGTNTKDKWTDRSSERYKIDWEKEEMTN
S. aureus Alpha hemolysin, sequence (P09616 27-319 limits assumed): as above

Turning to `CCCc1ccc(NS(=O)(=O)c2cc3[nH]c(=O)c(=O)[nH]c3cc2Cl)cc1` [Compound 55, 7-chloro-2,3-dioxo-N-(4-propylphenyl)-1,2,3,4-tetrahydroquinoxaline-6-sulfonamide], the IC50 (usually the point on the concentration scale where inhibition reaches its midpoint) in experiment [1] is 0.03 to 0.1 µM. Moreover, the EC50 (usually the concentration needed to bring the measured effect to its halfway point) in experiment [2] fell in the range of 0.03 to 0.1 µM.
Take `Cc1cc2[nH]c(=O)c(=O)[nH]c2cc1S(=O)(=O)Nc1ccc(C(F)(F)F)c(Cl)c1` [Compound 56, N-(3-chloro-4-(trifluoromethyl)phenyl)-7-methyl-2,3-dioxo-1,2,3,4-tetrahydroquinoxaline-6-sulfonamide]: the IC50 in experiment [1] lay within 0.03 to 0.1 µM. Also, the EC50 in experiment [2] lay in the range of 1 to 6 µM.
Compound `Cc1cc2[nH]c(=O)c(=O)[nH]c2cc1S(=O)(=O)Nc1cc(C)c(-c2cccc(Cl)c2)c(C)c1` [Compound 57, N-(3′-chloro-2,6-dimethyl-[1,1′-biphenyl]-4-yl)-7-methyl-2,3-dioxo-1,2,3,4-tetrahydroquinoxaline-6-sulfonamide] had an IC50 in experiment [1] of 0.03 to 0.1 µM. The same compound yielded an EC50 in experiment [2] of 0.03 to 0.1 µM.
Consider `Cc1cc2[nH]c(=O)c(=O)[nH]c2cc1S(=O)(=O)Nc1cc(C)c(-c2cccs2)c(C)c1` [Compound 58, N-(3,5-dimethyl-4-(thiophen-2-yl)phenyl)-7-methyl-2,3-dioxo-1,2,3,4-tetrahydroquinoxaline-6-sulfonamide], for which the concentration for half-maximal inhibition (IC50) in experiment [1] was 0.03 to 0.1 µM. The compound further returned an EC50 in experiment [2] of 1 to 6 µM.
On to `Cc1cc2[nH]c(=O)c(=O)[nH]c2cc1S(=O)(=O)Nc1cc(C)c(-c2cccc(N(C)C)c2)c(C)c1` [Compound 59, N-(3′-(dimethylamino)-2,6-dimethyl-[1,1′-biphenyl]-4-yl)-7-methyl-2,3-dioxo-1,2,3,4-tetrahydroquinoxaline-6-sulfonamide], for which the IC50 in experiment [1] lay in the range of 0.03 to 0.1 µM. Further, the EC50 in experiment [2] fell in the range of 0.1 to 1 µM.
For `Cc1cc2[nH]c(=O)c(=O)[nH]c2cc1S(=O)(=O)Nc1ccc2ccccc2c1` [Compound 60, 7-methyl-N-(naphthalen-2-yl)-2,3-dioxo-1,2,3,4-tetrahydroquinoxaline-6-sulfonamide], in that order: 0.03 to 0.1 µM and 0.03 to 0.1 µM.
For `Cc1cc2[nH]c(=O)c(=O)[nH]c2cc1S(=O)(=O)Nc1ccc(-c2ccccc2)cc1` [Compound 61, N-([1,1′-biphenyl]-4-yl)-7-methyl-2,3-dioxo-1,2,3,4-tetrahydroquinoxaline-6-sulfonamide], in that order: under 0.03 µM and 0.03 to 0.1 µM.
On to `Cc1cc2[nH]c(=O)c(=O)[nH]c2cc1S(=O)(=O)Nc1ccc(-c2sccc2C)c(Cl)c1` [Compound 62, N-(3-chloro-4-(3-methylthiophen-2-yl)phenyl)-7-methyl-2,3-dioxo-1,2,3,4-tetrahydroquinoxaline-6-sulfonamide], for which the IC50 in experiment [1] lay within 0.03 to 0.1 µM. Also, in experiment [2], the EC50 lay within 0.1 to 1 µM.
The corresponding values for `Cc1cc2[nH]c(=O)c(=O)[nH]c2c(F)c1S(=O)(=O)Nc1ccc(Br)c(Cl)c1` [Compound 63, N-(4-bromo-3-chlorophenyl)-5-fluoro-7-methyl-2,3-dioxo-1,2,3,4-tetrahydroquinoxaline-6-sulfonamide] are 0.03 to 0.1 µM and 1 to 6 µM.
Take `O=c1[nH]c2cc(F)c(S(=O)(=O)Nc3ccc(-c4ccccc4)cc3)cc2[nH]c1=O` [Compound 64, N-([1,1′-biphenyl]-4-yl)-7-fluoro-2,3-dioxo-1,2,3,4-tetrahydroquinoxaline-6-sulfonamide]: the IC50 in experiment [1] lay in the range of 0.03 to 0.1 µM. In addition, the EC50 in experiment [2] fell in the range of 0.1 to 1 µM.
For `O=c1[nH]c2cc(F)c(S(=O)(=O)Nc3ccc(-c4cccc(Cl)c4)c(Cl)c3)cc2[nH]c1=O` [Compound 65, N-(2,3′-dichloro-[1,1′-biphenyl]-4-yl)-7-fluoro-2,3-dioxo-1,2,3,4-tetrahydroquinoxaline-6-sulfonamide], in that order: 0.03 to 0.1 µM and 1 to 6 µM.
The corresponding values for `Cc1cc2[nH]c(=O)c(=O)[nH]c2cc1S(=O)(=O)Nc1ccc(-c2cncnc2)c(Cl)c1` [Compound 66, N-(3-chloro-4-(pyrimidin-5-yl)phenyl)-7-methyl-2,3-dioxo-1,2,3,4-tetrahydroquinoxaline-6-sulfonamide] are 0.03 to 0.1 µM and 0.1 to 1 µM.
`CCc1cc2[nH]c(=O)c(=O)[nH]c2cc1S(=O)(=O)Nc1ccc(C2CC2)cc1` [Compound 67, N-(4-cyclopropylphenyl)-7-ethyl-2,3-dioxo-1,2,3,4-tetrahydroquinoxaline-6-sulfonamide] displayed an IC50 in experiment [1] of 0.03 to 0.1 µM. This compound also displayed an EC50 in experiment [2] of 0.03 to 0.1 µM.
In experiment [1], `O=c1[nH]c2cc(F)c(S(=O)(=O)Nc3ccc(C4CC4)cc3)cc2[nH]c1=O` [Compound 68, N-(4-cyclopropylphenyl)-7-fluoro-2,3-dioxo-1,2,3,4-tetrahydroquinoxaline-6-sulfonamide] registered an IC50 of 0.03 to 0.1 µM. This compound also yielded an EC50 in experiment [2] of 0.1 to 1 µM.
In turn, `Cc1ccc(-c2ccc(NS(=O)(=O)c3cc4[nH]c(=O)c(=O)[nH]c4cc3C)cc2Cl)o1` [Compound 69, N-(3-chloro-4-(5-methylfuran-2-yl)phenyl)-7-methyl-2,3-dioxo-1,2,3,4-tetrahydroquinoxaline-6-sulfonamide] came in with a 50% inhibitory concentration (IC50) in experiment [1] of 0.03 to 0.1 µM. In addition, the EC50 in experiment [2] lay within 1 to 6 µM.
Take `Cc1ccc(-c2c(C)cc(NS(=O)(=O)c3cc4[nH]c(=O)c(=O)[nH]c4cc3C)cc2C)s1` [Compound 70, N-(3,5-dimethyl-4-(5-methylthiophen-2-yl)phenyl)-7-methyl-2,3-dioxo-1,2,3,4-tetrahydroquinoxaline-6-sulfonamide]: the IC50 in experiment [1] lay within 0.03 to 0.1 µM. Also, in experiment [2], the EC50 lay in the range of 0.1 to 1 µM.
Turning to `O=c1[nH]c2cc(F)c(S(=O)(=O)Nc3ccc(C4CCCCC4)cc3)cc2[nH]c1=O` [Compound 71, N-(4-cyclohexylphenyl)-7-fluoro-2,3-dioxo-1,2,3,4-tetrahydroquinoxaline-6-sulfonamide], the IC50 in experiment [1] was in the range of 0.1 to 1 µM. In experiment [2], this compound had an EC50 of 0.1 to 1 µM.
With `COc1ccccc1-c1ccc(NS(=O)(=O)c2cc3[nH]c(=O)c(=O)[nH]c3cc2C)cc1Cl` [Compound 72, N-(2-chloro-2′-methoxy-[1,1′-biphenyl]-4-yl)-7-methyl-2,3-dioxo-1,2,3,4-tetrahydroquinoxaline-6-sulfonamide], the IC50 in experiment [1] is 0.1 to 1 µM. Also, the EC50 in experiment [2] fell in the range of 0.1 to 1 µM.
In turn, `Cc1cc2[nH]c(=O)c(=O)[nH]c2cc1S(=O)(=O)Nc1cc(C)c(-c2ccccc2)c(C)c1` [Compound 73, N-(2,6-dimethyl-[1,1′-biphenyl]-4-yl)-7-methyl-2,3-dioxo-1,2,3,4-tetrahydroquinoxaline-6-sulfonamide] came in with an IC50 in experiment [1] of 0.1 to 1 µM. In experiment [2], this compound registered an EC50 of 0.1 to 1 µM.
Turning to `Cc1cc(NS(=O)(=O)c2cc3[nH]c(=O)c(=O)[nH]c3cc2F)cc(C)c1-c1ccccc1` [Compound 74, N-(2,6-dimethyl-[1,1′-biphenyl]-4-yl)-7-fluoro-2,3-dioxo-1,2,3,4-tetrahydroquinoxaline-6-sulfonamide], in experiment [1], the IC50 lay within 0.1 to 1 µM. The compound also displayed an EC50 in experiment [2] of 0.1 to 1 µM.
`Cc1cc2[nH]c(=O)c(=O)[nH]c2cc1S(=O)(=O)Nc1ccc(Br)c(Cl)c1` [Compound 75, N-(4-bromo-3-chlorophenyl)-7-methyl-2,3-dioxo-1,2,3,4-tetrahydroquinoxaline-6-sulfonamide] showed an IC50 in experiment [1] of 0.1 to 1 µM. The compound also displayed an EC50 in experiment [2] of 0.1 to 1 µM.
As for `Cc1cc2[nH]c(=O)c(=O)[nH]c2cc1S(=O)(=O)Nc1ccc(C(C)C)cc1` [Compound 76, N-(4-isopropylphenyl)-7-methyl-2,3-dioxo-1,2,3,4-tetrahydroquinoxaline-6-sulfonamide], in experiment [1], the IC50 fell in the range of 0.1 to 1 µM. Further, the EC50 in experiment [2] is 0.1 to 1 µM.
For `Cc1cc2[nH]c(=O)c(=O)[nH]c2cc1S(=O)(=O)Nc1ccc(-c2ccccc2Cl)c(Cl)c1` [Compound 77, N-(2,2′-dichloro-[1,1′-biphenyl]-4-yl)-7-methyl-2,3-dioxo-1,2,3,4-tetrahydroquinoxaline-6-sulfonamide], in experiment [1], the IC50 lay within 0.1 to 1 µM. The EC50 in experiment [2] fell in the range of 0.1 to 1 µM.
On to `Cc1cc2[nH]c(=O)c(=O)[nH]c2cc1S(=O)(=O)Nc1ccc(-c2ccccc2CO)c(Cl)c1` [Compound 78, N-(2-chloro-2′-(hydroxymethyl)-[1,1′-biphenyl]-4-yl)-7-methyl-2,3-dioxo-1,2,3,4-tetrahydroquinoxaline-6-sulfonamide], for which, in experiment [1], the IC50 was 0.1 to 1 µM. Also, the concentration giving a half-maximal response (EC50) in experiment [2] fell in the range of 0.1 to 1 µM.
`Cc1cc2[nH]c(=O)c(=O)[nH]c2cc1S(=O)(=O)Nc1ccc2c(c1)CCC2` [Compound 79, N-(2,3-dihydro-1H-inden-5-yl)-7-methyl-2,3-dioxo-1,2,3,4-tetrahydroquinoxaline-6-sulfonamide] showed an IC50 in experiment [1] of 0.1 to 1 µM. In experiment [2], this compound showed an EC50 of 0.03 to 0.1 µM.
In the case of `COc1cc(NS(=O)(=O)c2cc3[nH]c(=O)c(=O)[nH]c3cc2C)ccc1-c1ccccc1` [Compound 81, N-(2-methoxy-[1,1′-biphenyl]-4-yl)-7-methyl-2,3-dioxo-1,2,3,4-tetrahydroquinoxaline-6-sulfonamide], the IC50 in experiment [1] lay within 0.1 to 1 µM. In addition, in experiment [2], the EC50 is 0.1 to 1 µM.
In experiment [1], `O=c1[nH]c2cc(F)c(S(=O)(=O)Nc3ccc(-c4ccsc4)c(Cl)c3)cc2[nH]c1=O` [Compound 82, N-(3-chloro-4-(thiophen-3-yl)phenyl)-7-fluoro-2,3-dioxo-1,2,3,4-tetrahydroquinoxaline-6-sulfonamide] registered an IC50 of 0.1 to 1 µM. The compound further yielded an EC50 in experiment [2] of 1 to 6 µM.
`Cc1cc2[nH]c(=O)c(=O)[nH]c2cc1S(=O)(=O)Nc1ccc(C(C)(C)C)cc1` [Compound 83, N-(4-(tert-butyl)phenyl)-7-methyl-2,3-dioxo-1,2,3,4-tetrahydroquinoxaline-6-sulfonamide]: in experiment [1], the IC50 fell in the range of 0.1 to 1 µM. The compound further showed an EC50 in experiment [2] of 0.03 to 0.1 µM.
For `Cc1ccc(-c2c(C)cc(NS(=O)(=O)c3cc4[nH]c(=O)c(=O)[nH]c4cc3C)cc2C)o1` [Compound 84, N-(3,5-dimethyl-4-(5-methylfuran-2-yl)phenyl)-7-methyl-2,3-dioxo-1,2,3,4-tetrahydroquinoxaline-6-sulfonamide], in that order: 0.1 to 1 µM and 0.1 to 1 µM.
For the compound `O=c1[nH]c2cc(Cl)c(S(=O)(=O)Nc3ccc(C4CC4)cc3)cc2[nH]c1=O` [Compound 85, 7-chloro-N-(4-cyclopropylphenyl)-2,3-dioxo-1,2,3,4-tetrahydroquinoxaline-6-sulfonamide], the half-maximal inhibitory concentration (IC50) in experiment [1] is 0.1 to 1 µM. The EC50 in experiment [2] was in the range of 0.03 to 0.1 µM.
